Experiments:
[1] = Drug release from hydrogels, with diffusion model fitting; assay type: physicochemical; details: for Average drug release (last 30 min), normalized amount: released from purified mono-PEGylated albumin hydrogels (10 kDa PEG), insulins fluorescein-labelled, FIG. 5
Description: Both LEVEMIR® and […]® were fluorescently labelled by 5 mg/ml NHS-fluorescein (Pierce, Illinois, U.S.A.) in DMSO, with a molar ratio of 15:1 NHS-fluorescein to insulin. The solution was allowed to react for 5 hr in 4° C. and dialysed (Cellu-Sep H1, 1-kDaMW cutoff, Texas, U.S.A.) against PBS with 0.1% (w/v) of sodium azide with DMSO in decreasing concentrations of DMSO (10-0%) for 1 week.
The drug was saturated in disk-shaped hydrogel constructs prepared from PEG-DA or PEGylated proteins, that were formed into hydrogels by photopolymerization using 0.1% (w/v) Irgacure™ 2959 (Ciba Specialty Chemicals, Basel, Switzerland) and UV light (λ=365 nm, 4-5 mW/cm^2) exposure for 5 min as described elsewhere (Gonen-Wadmany et al., 2007). The hydrogel constructs were produced from six different hydrogel precursor solutions, including: (i) purified mono-PEGylated albumin in PEG-DA; (ii) non-purified mono-PEGylated albumin (containing wild-type and multi-PEGylated albumin) in PEG-DA; (iii) multi-PEGylated albumin in PEG-DA; (iv) wild-type albumin in PEG-DA; (v) PEG-DA; (vi) PEGylated fibrinogen in PEG-DA. In all cases, the protein (albumin or fibrinogen) concentration was 8.5 mg/ml, and the PEG-DA was added to reach a total PEG concentration of 7%.
Drug release from the hydrogel constructs into the supernatant was measured fluorescently (excitation at […]) in PBS with 0.1% (w/v) of sodium azide under constant agitation at 37° C. using a Varioscan plate-reader (Thermo Electron Corporation, Finland). (In the case of degradation experiments, 0.01 mg/ml of Trypsin (MP Biomedicals) was added to the PBS solution.) The raw data was normalized by the fluorescence intensity measured after 24 hours. The constructs were liquefied by homogenization or sonication (for multi-PEGylated albumin and fibrinogen), or by chemical means using 0.1 M NaOH, and the drug content was quantified to confirm complete drug release.
The drug release profiles were compared with a known model of diffusion-based release kinetics. […]

serum albumin = serum albumin (Homo sapiens, UniProt P02768); details: cited from earlier work
[2] = Equilibrium dialysis of Warfarin with wild-type or PEGylated albumin; assay type: binding; details: result in words; for affinity of Warfarin to the protein by equilibrium dialysis: equilibrium at about 24 hr, compared to wild-type albumin
Description: The two chambers of the device were separated by a dialysis membrane (12-14 kDa MW cutoff) and drug diffusion was measured by fluorescence spectroscopy. One dialysis chamber of the device was filled with 25 ml PBS solution containing 0.1% (w/v) of sodium azide (Fluka).

[3] = Warfarin fluorescence and albumin binding; details: for Fluorescence Intensity Ratio Comparing to Warfarin Alone: 5 mg/ml protein in PBS, 10:1 molar ratio albumin to Warfarin, ~5 hours incubation, excitation 320 nm, emission 385 nm, n = 6
Description: The mixture was incubated for ˜5 hours before reading fluorescence emission (λ=385 nm) at a 320 nm excitation wavelength using a Varioscan spectral scanning multimode reader (Thermo Electron Corporation, Vantaa, Finland).

Compound	Average drug release (last 30 min), normalized amount [1]	Fluorescence Intensity Ratio Comparing to Warfarin Alone [3]	affinity of Warfarin to the protein by equilibrium dialysis [2]	further results
COc1ccc2cc([C@H](C)C(=O)O)ccc2c1 [Naproxen]	0.66±0.07	–	–	release kinetics of drugs compared ([1]; from purified mono-PEGylated albumin hydrogels (10 kDa PEG), p-value<0.05): released significantly faster
ACTRAPID®: regular human insulin formulation, 100 IU/ml, Novo Nordisk; no binding affinity to serum albumin	0.57±0.14	–	–	binding affinity to serum albumin (serum albumin): no binding affinity
Albumin: bovine serum albumin (MP Biomedicals), non-PEGylated control in solution	–	2.8 ± 0.2	–	percent of drug (Warfarin) transported through the dialysis membrane at equilibrium ([2]; about 24 hr, albumin to Warfarin 5:1, room temperature): lowest; increase in Warfarin fluorescence when bound to albumin ([3]; bovine albumin, versus unbound Warfarin): 2.8 fold
PEG-Alb 1.5 kDa: bovine serum albumin multi-PEGylated with linear 1.5 kDa PEG-DA, in solution	–	1.6 ± 0.3	significantly less affinity	–
PEG-Alb 4 kDa: bovine serum albumin multi-PEGylated with linear 4 kDa PEG-DA, in solution	–	1.5 ± 0.4	significantly less affinity	–
PEG-Alb 10 kDa: bovine serum albumin multi-PEGylated with linear 10 kDa PEG-DA, in solution	–	1.5 ± 0.5	–	–
